Results published in patent US7087375B1, “Method for determining the mechanism of HIV RT inhibitors” (priority 2000, dated 2006).
Several values for one entry are separate records, joined by “and”; a condition that tells them apart may be missing. Identical values can stand only once. Like-named read-outs stand apart in the source and are kept apart here.

Assays:
Type in all cases: biochemical
HIV-1 RT mutant 69S-AG = target: T1, HIV-1 RT mutant 69S-AG (Human immunodeficiency virus type 1 group M subtype B, UniProt P04585, INS655SA/T656G/T656S); settings: 69S-AG RT
T1 construct: The final RT products, in a heterodimeric form (p66/p51); made in house; host or cells: E. coli XL1-Blue (vector pKK233-2)

[1] = target: T2, HIV-1 RT mutant 41/184/215 (Human immunodeficiency virus type 1 group M subtype B, UniProt P04585, M628L/M771V/T802Y); settings: 41/184/215 RT, AZT-TP assay, read-out: Km (BrdUTP)
T2 construct: The final RT products, in a heterodimeric form (p66/p51); made in house; host or cells: E. coli XL1-Blue (vector pKK233-2)

HIV-1 RT mutant Q151M = target: T3, HIV-1 RT mutant Q151M (Human immunodeficiency virus type 1 group M subtype B, UniProt P04585, Q738M); settings: d4T-TP assay
T3 construct: The final RT products, in a heterodimeric form (p66/p51); made in house

HIV-1 RT mutant V75T = target: T4, HIV-1 RT mutant V75T (Human immunodeficiency virus type 1 group M subtype B, UniProt P04585, V662T); settings: d4T-TP assay
T4 construct: The final RT products, in a heterodimeric form (p66/p51); made in house

HIV-1 RT mutant 41/215 = HIV-1 RT mutant 41/215 (Human immunodeficiency virus type 1 group M subtype B, UniProt P04585, M628L/T802Y); assay: RT inhibition assay (Lenti RT, polyrA/oligo(dT), BrdUTP); settings: 41/215 RT, AZT-TP assay
HIV-1 RT mutant 69S-SS = target: T5, HIV-1 RT mutant 69S-SS (Human immunodeficiency virus type 1 group M subtype B, UniProt P04585, INS655SS/T656S); settings: 69S-SS RT, AZT-TP assay, read-out: Km (BrdUTP)
T5 construct: The final RT products, in a heterodimeric form (p66/p51); made in house; host or cells: E. coli XL1-Blue (vector pKK233-2)

[2] = target: T6, HIV-1 RT mutant 41/69S-SS/215 (Human immunodeficiency virus type 1 group M subtype B, UniProt P04585, INS655SS/M628L/T656S/T802Y); settings: 41/69S-SS/215 RT, AZT-TP assay, read-out: Km (BrdUTP)
T6 construct: The final RT products, in a heterodimeric form (p66/p51); made in house; host or cells: E. coli XL1-Blue (vector pKK233-2)

[3] = target: T7, HIV-1 RT mutant 41/67/70/215 (Human immunodeficiency virus type 1 group M subtype B, UniProt P04585, D654N/K657R/M628L/T802Y); settings: 41/67/70/215 RT
T7 construct: The final RT products, in a heterodimeric form (p66/p51); made in house; host or cells: E. coli XL1-Blue (vector pKK233-2)

[4] = target: T8, HIV-1 RT mutant 41/67/70/184/210/211/214/215 (Human immunodeficiency virus type 1 group M subtype B, UniProt P04585, D654N/K657R/L797W/L801F/M628L/M771V/R798K/T802Y); settings: 41/67/70/184/210/211/214/215 RT
T8 construct: The final RT products, in a heterodimeric form (p66/p51); made in house; host or cells: E. coli XL1-Blue (vector pKK233-2)

[5] = target: T9, HIV-1 RT wild type (HXB2) (Human immunodeficiency virus type 1 group M subtype B, UniProt P04585)
T9 construct: The final RT products, in a heterodimeric form (p66/p51); made in house; host or cells: E. coli XL1-Blue (vector pKK233-2)

[6] = target: T10, HIV-1 RT mutant 41/67/70/184/215 (Human immunodeficiency virus type 1 group M subtype B, UniProt P04585, D654N/K657R/M628L/M771V/T802Y); settings: 41/67/70/184/215 RT
T10 construct: The final RT products, in a heterodimeric form (p66/p51); made in house; host or cells: E. coli XL1-Blue (vector pKK233-2)

HIV-1 RT mutant 69S-SG = target: T11, HIV-1 RT mutant 69S-SG (Human immunodeficiency virus type 1 group M subtype B, UniProt P04585, INS655SS/T656G/T656S); settings: 69S-SG RT
T11 construct: The final RT products, in a heterodimeric form (p66/p51); made in house; host or cells: E. coli XL1-Blue (vector pKK233-2)

[7] = AZT-TP assay, ATP 3.2 mM, read-out: Km (BrdUTP)
[8] = AZT-TP assay, without ATP, read-out: Km (BrdUTP)
[9] = d4T-TP assay, ATP 3.2 mM, read-out: Km
[10] = d4T-TP assay, without ATP, read-out: Km

In the case of “bromo-deoxyuridine-triphosphate [BrdUTP]”, the Km (HIV-1 RT mutant 69S-AG; [7]) is reported as 280 nM, the Km (HIV-1 RT mutant 69S-AG; [8]) is reported as 100 nM and the Km (HIV-1 RT mutant 69S-AG; [9]) is reported as 126 nM. For the same substance, the Km (HIV-1 RT mutant 69S-AG; [10]) was 117 nM, the Km ([1]; ATP 3.2 mM) was 140 nM and the Km ([1]; without ATP) was 49 nM. For the same substance, the Km (HIV-1 RT mutant Q151M; ATP 3.2 mM) was 174 nM, the Km (HIV-1 RT mutant Q151M; without ATP) was 117 nM and the Km (HIV-1 RT mutant V75T; ATP 3.2 mM) was 165 nM. For the same substance, the Km (HIV-1 RT mutant V75T; without ATP) was 79 nM, the Km (HIV-1 RT mutant 41/215; ATP 3.2 mM) was 360 nM and the Km (HIV-1 RT mutant 41/215; without ATP) was 110 nM. The Km (HIV-1 RT mutant 69S-SS; ATP 3.2 mM) was 220 nM, the Km (HIV-1 RT mutant 69S-SS; without ATP) was 66 nM and the Km ([2]; ATP 3.2 mM) was 210 nM. The Km ([2]; without ATP) was 45 nM, the Km ([3]; AZT-TP assay, ATP 3.2 mM + PPi 150 μM, read-out: Km (BrdUTP)) was 202 nM and the Km [3, 7] was 74 nM. It also gave a Km ([3]; AZT-TP assay, ATP 6.0 mM, read-out: Km (BrdUTP)) of 225 nM, a Km ([3]; AZT-TP assay, ATP […], read-out: Km (BrdUTP)) of 64 nM and a Km ([3]; AZT-TP assay, GTP 0.5 mM, read-out: Km (BrdUTP)) of 117 nM. It also gave a Km ([3]; AZT-TP assay, PPi 150 μM, read-out: Km (BrdUTP)) of 90 nM, a Km ([3]; AZT-TP assay, no extra additions (without ATP), read-out: Km (BrdUTP)) of 10 nM and a Km ([3]; AZT-TP assay, nontreated pyrophosphatase ATP 3.2 mM (control), single experiment, read-out: Km (BrdUTP)) of 44 nM. It also gave a Km ([3]; AZT-TP assay, pyrophosphatase treated ATP 3.2 mM, single experiment, read-out: Km (BrdUTP)) of 37 nM, a Km [3, 9] of 126 nM and a Km [3, 10] of 80 nM. It also gave a Km [4, 7] of 580 nM, a Km [4, 8] of 120 nM and a Km [4, 9] of 249 nM. For the same substance, the Km [4, 10] was 216 nM, the Km ([5]; read-out: Km (BrdUTP)) was 310 nM and 170 nM and the Km ([5]; wild type HXB2 RT, AZT-TP assay, ATP 3.2 mM + PPi 150 μM, read-out: Km (BrdUTP)) was 517 nM. For the same substance, the Km ([5]; wild type HXB2 RT, AZT-TP assay, ATP 6.0 mM, read-out: Km (BrdUTP)) was 810 nM, the Km ([5]; wild type HXB2 RT, AZT-TP assay, ATP […], read-out: Km (BrdUTP)) was 240 nM and the Km ([5]; wild type HXB2 RT, AZT-TP assay, GTP 0.5 mM, read-out: Km (BrdUTP)) was 324 nM. The Km ([5]; wild type HXB2 RT, AZT-TP assay, PPi 150 μM, read-out: Km (BrdUTP)) was 300 nM, the Km ([5]; wild type HXB2 RT, d4T-TP assay, ATP 3.2 mM, read-out: Km) was 162 nM and the Km ([5]; wild type HXB2 RT, d4T-TP assay, without ATP, read-out: Km) was 136 nM. For the same substance, the Km [6, 7] was 380 nM, the Km [6, 8] was 60 nM and the Km [6, 9] was 152 nM. It also gave a Km [6, 10] of 75 nM, a Km (HIV-1 RT mutant 69S-SG; [7]) of 360 nM and a Km (HIV-1 RT mutant 69S-SG; [8]) of 100 nM. For the same substance, the Km (HIV-1 RT mutant 69S-SG; [9]) was 228 nM and the Km (HIV-1 RT mutant 69S-SG; [10]) was 239 nM.
